Data as given in patent US20260144770A1, “COMPOSITION FOR INHIBITING SEBUM SECRETION CONTAINING A THYMOL ESTER-BASED COMPOUND” (AMOREPACIFIC CORPORATION, priority 2024, published 2026).

Tested on: Human sebocytes
Test: Test of sebum secretion-inhibiting effect using human sebocytes (linoleic acid-induced, Bodipy lipid staining)
Format: cell-based
Description: Human sebocytes were cultured for 24 hours in an environment of 37° C. and 5% CO2 with Sebocyte Complete Culture Media (Celprogen), and then treated with 100 μM linoleic acid and 0.1, 0.5, 1, and 2 ppm Melasolv and cultured for another 48 hours.
Thereafter, the cells were fixed with formaldehyde, and lipids were stained with 2 μM Bodipy. Fluorescence intensity was measured at a specific wavelength (Excitation/Emission: 485/528 nm) using a Fluorescent Plate Reader.

Row | Structure (SMILES) | amount of sebum production (concentration dependence) (0.1, 0.5, 1, and 2 ppm Melasolv together with 100 μM linoleic acid, 48 hours (FIG. 1)) | sebum production seen in fluorescence photograph (FIG. 2) (2 ppm Melasolv, naked-eye observation of Bodipy fluorescence photograph) | inhibition at 2 ppm (Homo sapiens, 2 ppm Melasolv with 100 μM linoleic acid, 48 hours, based on the amount of sebum production induced by linoleic acid, Bodipy fluorescence (FIG. 1)) [%] | sebum production, percentage compared to the untreated control group (100%) (100 μM linoleic acid alone (inducer), 48 hours, Bodipy fluorescence) [%]
1 | COc1cc(/C=C/C(=O)Oc2cc(C)ccc2C(C)C)cc(OC)c1OC [Melasolv, (5-methyl-2-propan-2-ylphenyl) (E)-3-(3,4,5-trimethoxyphenyl)prop-2-enoate] | decreased in proportion to the concentration | most inhibited | ~60.3 | 
2 | CCCCC/C=C\C/C=C\CCCCCCCC(=O)O [linoleic acid, reference compound] |  |  |  | 142
